Reference: publication PMC10786269 (Proceedings of the National Academy of Sciences of the …, 2024)
Where a name gives a salt, the structure may show the parent alone.

Experiments:
[1] = target: T1, Polyphosphate kinase-1 (PPK-1, Rv2984) (Mycobacterium tuberculosis, UniProt P9WHV9); test: microscale thermophoresis; type: binding
T1 sequence (P9WHV9 1-742): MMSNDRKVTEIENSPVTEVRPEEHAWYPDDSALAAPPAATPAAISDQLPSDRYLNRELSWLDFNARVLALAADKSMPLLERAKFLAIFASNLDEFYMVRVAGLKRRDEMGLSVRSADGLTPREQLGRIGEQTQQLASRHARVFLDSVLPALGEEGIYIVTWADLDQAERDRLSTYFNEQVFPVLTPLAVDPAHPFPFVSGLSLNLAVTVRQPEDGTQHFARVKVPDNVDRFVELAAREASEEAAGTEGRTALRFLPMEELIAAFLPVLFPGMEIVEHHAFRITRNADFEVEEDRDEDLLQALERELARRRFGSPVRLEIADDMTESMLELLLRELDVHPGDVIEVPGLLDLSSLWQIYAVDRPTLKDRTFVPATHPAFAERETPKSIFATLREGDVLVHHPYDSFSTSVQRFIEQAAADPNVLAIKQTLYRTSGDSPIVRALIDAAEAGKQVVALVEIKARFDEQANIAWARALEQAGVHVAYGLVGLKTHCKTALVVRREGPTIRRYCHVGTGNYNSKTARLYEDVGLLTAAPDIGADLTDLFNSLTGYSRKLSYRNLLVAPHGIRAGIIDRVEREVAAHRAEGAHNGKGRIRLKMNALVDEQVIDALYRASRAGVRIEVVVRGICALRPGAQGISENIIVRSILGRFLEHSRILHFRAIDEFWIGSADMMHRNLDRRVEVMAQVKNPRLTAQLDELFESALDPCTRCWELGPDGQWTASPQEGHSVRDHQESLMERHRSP

[2] = target: T1, Polyphosphate kinase-1 (PPK-1, Rv2984); type: biochemical

Structure (SMILES): O=C(c1ccc(OCCN2CCCCC2)cc1)c1c(-c2ccc(O)cc2)sc2cc(O)ccc12 [Cpd-11, raloxifene hydrochloride]
- Kd [1]: 40 µM

Structure (SMILES): O=C1OC2(c3ccccc31)c1ccc(O)c(O)c1Oc1c2ccc(O)c1O [gallein]
- inhibition of PPK-1 ATP and polyP synthesis (SI Appendix Fig. S6 A-C) [2]: gallein inhibited both ATP and polyP synthesis activity associated with the PPK-1 homolog from M. tuberculosis
